# Measured values: ChEMBL document CHEMBL4619814, “Identification and Development of 1,4-Diaryl-1,2,3-triazolo-Based Ureas as Novel FLT3 Inhibitors” (ACS Med Chem Lett, 2020)
# Activity calls are given as the source filed them. The rule behind the calls is not given here.
# What was measured:
# [1] = test system: Receptor-type tyrosine-protein kinase FLT3 (Homo sapiens), P36888 [UNDEFINED MUTATION]; assay: Inhibition of FLT3 ITD mutant expressed in human MV4-11 cells assessed as reduction in STAT5 level at 4 nM incubated for 6 hrs by Western blot analysis; format: cell-based
# [2] = Cmax in Sprague-Dawley rat at 5 mg/kg, iv; format: ADME, organism-based; set-up: dose 5 mg/kg, route intravenous; conditions: in vivo
# MV4-11 [3] = assay: Induction of cell cycle arrest in human MV4-11 cells assessed as reduction in Cyclin D2 expression at 0.16 to 100 nM by Western blot analysis; format: functional, cell-based
# MV4-11 [4] = assay: Induction of apoptosis in human MV4-11 cells assessed as viable cells at 20 nM incubated for 48 hrs by annexin V and 7-AAD staining based flow cytometry analysis (reference value: 90.47 %); format: functional; conditions: MV4-11, 48 h, read-out: Activity
# MV4-11 [5] = assay: Induction of apoptosis in human MV4-11 cells assessed as early apoptotic cells at 100 nM incubated for 48 hrs by annexin V and 7-AAD staining based flow cytometry analysis (reference value: 6.36 %); format: functional
# [6] = Tmax in Sprague-Dawley rat at 5 mg/kg, iv; format: ADME, organism-based; conditions: in vivo
# MV4-11 [7] = assay: Induction of cell cycle arrest in human MV4-11 cells assessed as reduction in Cyclin E expression at 0.16 to 100 nM by Western blot analysis; format: functional, cell-based
# in vitro = conditions: mouse, BaF3 cells
# Description: Cytotoxicity against human BAF3 cells assessed as growth inhibition incubated for 72 hrs by CCK8 assay
# [8] = target: Mast/stem cell growth factor receptor Kit (Homo sapiens, UniProt P10721)
# Description: Binding affinity to recombinant human KIT (571 to 972 residues) expressed in bacterial expression system by Kinomescan method
# MV4-11 [9] = assay: Induction of cell cycle arrest in human MV4-11 cells assessed as G2/M phase at 20 nM incubated for 48 hrs by propidium iodide staining based flow cytometry analysis (reference value: 24.88 %); format: functional
# [10] = target: Receptor-type tyrosine-protein kinase FLT3 (Homo sapiens, UniProt P36888, ITD)
# Description: Binding affinity to recombinant human FLT3 ITD mutant expressed in bacterial expression system by Kinomescan method
# [11] = test system: Receptor-type tyrosine-protein kinase FLT3 (Homo sapiens), P36888 [UNDEFINED MUTATION]; assay: Inhibition of FLT3 ITD mutant expressed in human MV4-11 cells assessed as reduction in FLT3 phosphorylation at 0.8 to 500 nM incubated for 6 hrs by Western blot analysis; format: cell-based
# MOLM-13 = assay: cells; conditions: Homo sapiens, MOLM-13, 72 h
# Description: Cytotoxicity against human MOLM13 cells assessed as reduction in cell viability incubated for 72 hrs by CCK8 assay
# MV4-11 [12] = assay: Induction of apoptosis in human MV4-11 cells assessed as late apoptotic cells at 4 nM incubated for 48 hrs by annexin V and 7-AAD staining based flow cytometry analysis (reference value: 2.25 %); format: functional
# MV4-11 [13] = assay: Induction of apoptosis in human MV4-11 cells assessed as early apoptotic cells at 20 nM incubated for 48 hrs by annexin V and 7-AAD staining based flow cytometry analysis (reference value: 6.36 %); format: functional
# [14] = target: Receptor-type tyrosine-protein kinase FLT3 (Homo sapiens, UniProt P36888, F691L/ITD)
# Description: Binding affinity to recombinant human FLT3 ITD/F691L double mutant expressed in bacterial expression system by Kinomescan method
# MV4-11 [15] = assay: Induction of apoptosis in human MV4-11 cells assessed as increase in Caspase-9 cleavage at 0.16 to 100 nM by Western blot analysis; format: functional, cell-based
# MV4-11 [16] = assay: Induction of cell cycle arrest in human MV4-11 cells assessed as S phase at 20 nM incubated for 48 hrs by propidium iodide staining based flow cytometry analysis (reference value: 20.14 %); format: functional
# U-937 = assay: cells; conditions: Homo sapiens, U-937, 72 h
# Description: Cytotoxicity against human U937 cells assessed as reduction in cell viability incubated for 72 hrs by CCK8 assay
# [17] = test system: Receptor-type tyrosine-protein kinase FLT3 (Homo sapiens), P36888 [UNDEFINED MUTATION]; conditions: MV4-11
# Description: Inhibition of FLT3 ITD mutant expressed in human MV4-11 cells assessed as reduction in cell growth incubated for 72 hrs by CCK8 assay
# MV4-11 [18] = assay: Induction of apoptosis in human MV4-11 cells assessed as viable cells at 4 nM incubated for 48 hrs by annexin V and 7-AAD staining based flow cytometry analysis (reference value: 90.47 %); format: functional; conditions: MV4-11, 48 h, read-out: Activity
# [19] = target: Platelet-derived growth factor receptor beta (Homo sapiens, UniProt P09619)
# Description: Binding affinity to recombinant human PDGFRB (582 to 1009 residues) expressed in bacterial expression system by Kinomescan method
# MV4-11 [20] = assay: Induction of apoptosis in human MV4-11 cells assessed as late apoptotic cells at 20 nM incubated for 48 hrs by annexin V and 7-AAD staining based flow cytometry analysis (reference value: 2.25 %); format: functional
# MV4-11 [21] = assay: Induction of cell cycle arrest in human MV4-11 cells assessed as S phase at 4 nM incubated for 48 hrs by propidium iodide staining based flow cytometry analysis (reference value: 20.14 %); format: functional
# [22] = target: Receptor-type tyrosine-protein kinase FLT3 (Homo sapiens) (UniProt P36888); assay: Inhibition of FLT3 in human NB4 cells assessed as reduction in FLT3 phosphorylation at 0.8 to 500 nM incubated for 6 hrs by Western blot analysis; format: cell-based; conditions: NB-4
# [23] = AUC in Sprague-Dawley rat at 25 mg/kg, po; format: ADME, organism-based; conditions: in vivo
# HL-60 = assay: cells; conditions: Homo sapiens, HL-60, 72 h
# Description: Cytotoxicity against human HL60 cells assessed as reduction in cell viability incubated for 72 hrs by CCK8 assay
# MV4-11 [24] = assay: Induction of apoptosis in human MV4-11 cells assessed as late apoptotic cells at 100 nM incubated for 48 hrs by annexin V and 7-AAD staining based flow cytometry analysis (reference value: 2.25 %); format: functional
# [25] = target: Macrophage colony-stimulating factor 1 receptor (Homo sapiens, UniProt P07333); assay: Binding affinity to recombinant human CSF1R (564 to 939 residues) expressed in bacterial expression system by Kinomescan method
# MV4-11 [26] = assay: Induction of cell cycle arrest in human MV4-11 cells assessed as G2/M phase at 4 nM incubated for 48 hrs by propidium iodide staining based flow cytometry analysis (reference value: 24.88 %); format: functional
# Receptor-type tyrosine-protein kinase FLT3 (Homo sapiens), P36888 [UNDEFINED MUTATION], sequence (P36888 whole entry, looked up, change not shown): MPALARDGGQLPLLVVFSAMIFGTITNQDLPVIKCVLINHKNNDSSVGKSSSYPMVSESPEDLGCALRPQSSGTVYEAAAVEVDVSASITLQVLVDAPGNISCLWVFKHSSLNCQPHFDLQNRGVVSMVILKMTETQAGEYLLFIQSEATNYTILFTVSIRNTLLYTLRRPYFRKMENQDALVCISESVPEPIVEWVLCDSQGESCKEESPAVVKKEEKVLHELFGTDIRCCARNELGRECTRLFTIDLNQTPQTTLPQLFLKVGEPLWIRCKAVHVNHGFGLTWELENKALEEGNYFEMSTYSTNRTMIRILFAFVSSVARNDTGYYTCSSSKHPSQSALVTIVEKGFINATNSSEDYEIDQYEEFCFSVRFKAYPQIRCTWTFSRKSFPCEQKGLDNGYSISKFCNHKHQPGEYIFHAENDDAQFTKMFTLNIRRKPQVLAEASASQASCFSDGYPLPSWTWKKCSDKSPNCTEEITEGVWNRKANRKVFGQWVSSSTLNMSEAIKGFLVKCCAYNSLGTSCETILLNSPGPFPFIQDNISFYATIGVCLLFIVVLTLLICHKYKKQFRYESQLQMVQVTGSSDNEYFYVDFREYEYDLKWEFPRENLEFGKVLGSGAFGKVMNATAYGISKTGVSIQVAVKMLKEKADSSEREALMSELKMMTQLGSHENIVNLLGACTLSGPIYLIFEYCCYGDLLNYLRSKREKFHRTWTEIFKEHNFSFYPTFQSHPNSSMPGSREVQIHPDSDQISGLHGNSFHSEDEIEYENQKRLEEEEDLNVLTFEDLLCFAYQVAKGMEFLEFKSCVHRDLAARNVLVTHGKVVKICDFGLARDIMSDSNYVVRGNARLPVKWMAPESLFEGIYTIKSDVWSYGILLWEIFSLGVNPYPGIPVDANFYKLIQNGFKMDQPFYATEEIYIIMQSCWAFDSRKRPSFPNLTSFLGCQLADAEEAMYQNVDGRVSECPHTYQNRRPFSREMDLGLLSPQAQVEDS
# Receptor-type tyrosine-protein kinase FLT3 (Homo sapiens), sequence (P36888 whole entry): as the sequence (P36888 whole entry, looked up, change not shown) above
# Receptor-type tyrosine-protein kinase FLT3 (Homo sapiens, UniProt P36888, ITD), sequence (P36888 whole entry, looked up, change not shown): as above
# Receptor-type tyrosine-protein kinase FLT3 (Homo sapiens, UniProt P36888, F691L/ITD), sequence (P36888 whole entry, looked up, stated change not applied): as the sequence (P36888 whole entry, looked up, change not shown) above
# Mast/stem cell growth factor receptor Kit, sequence (P10721 whole entry): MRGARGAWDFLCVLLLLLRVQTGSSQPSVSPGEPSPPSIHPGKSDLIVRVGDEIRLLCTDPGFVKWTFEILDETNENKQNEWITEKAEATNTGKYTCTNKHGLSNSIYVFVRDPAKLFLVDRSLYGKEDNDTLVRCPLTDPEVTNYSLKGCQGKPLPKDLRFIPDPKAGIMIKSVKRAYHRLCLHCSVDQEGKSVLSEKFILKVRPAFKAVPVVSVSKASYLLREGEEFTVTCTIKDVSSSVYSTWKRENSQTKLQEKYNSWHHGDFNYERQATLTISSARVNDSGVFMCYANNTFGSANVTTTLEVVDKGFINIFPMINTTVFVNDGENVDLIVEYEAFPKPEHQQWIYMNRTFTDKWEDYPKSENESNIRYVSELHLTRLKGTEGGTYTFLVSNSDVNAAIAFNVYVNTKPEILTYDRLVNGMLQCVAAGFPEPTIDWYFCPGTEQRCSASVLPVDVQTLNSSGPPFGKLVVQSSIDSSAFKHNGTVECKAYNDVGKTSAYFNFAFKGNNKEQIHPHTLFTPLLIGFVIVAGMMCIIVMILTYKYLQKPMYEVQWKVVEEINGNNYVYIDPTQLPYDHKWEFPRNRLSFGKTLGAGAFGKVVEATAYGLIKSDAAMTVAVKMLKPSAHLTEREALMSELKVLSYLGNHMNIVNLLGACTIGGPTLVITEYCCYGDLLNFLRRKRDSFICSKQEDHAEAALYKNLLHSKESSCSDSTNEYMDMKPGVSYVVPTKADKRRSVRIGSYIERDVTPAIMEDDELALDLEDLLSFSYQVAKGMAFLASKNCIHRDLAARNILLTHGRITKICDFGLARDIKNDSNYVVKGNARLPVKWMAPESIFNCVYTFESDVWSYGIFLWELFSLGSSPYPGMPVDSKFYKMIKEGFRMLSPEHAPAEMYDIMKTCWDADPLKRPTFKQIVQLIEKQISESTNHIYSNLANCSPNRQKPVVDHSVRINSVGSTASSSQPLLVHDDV
# Macrophage colony-stimulating factor 1 receptor, sequence (P07333 whole entry, the tested form may be a part): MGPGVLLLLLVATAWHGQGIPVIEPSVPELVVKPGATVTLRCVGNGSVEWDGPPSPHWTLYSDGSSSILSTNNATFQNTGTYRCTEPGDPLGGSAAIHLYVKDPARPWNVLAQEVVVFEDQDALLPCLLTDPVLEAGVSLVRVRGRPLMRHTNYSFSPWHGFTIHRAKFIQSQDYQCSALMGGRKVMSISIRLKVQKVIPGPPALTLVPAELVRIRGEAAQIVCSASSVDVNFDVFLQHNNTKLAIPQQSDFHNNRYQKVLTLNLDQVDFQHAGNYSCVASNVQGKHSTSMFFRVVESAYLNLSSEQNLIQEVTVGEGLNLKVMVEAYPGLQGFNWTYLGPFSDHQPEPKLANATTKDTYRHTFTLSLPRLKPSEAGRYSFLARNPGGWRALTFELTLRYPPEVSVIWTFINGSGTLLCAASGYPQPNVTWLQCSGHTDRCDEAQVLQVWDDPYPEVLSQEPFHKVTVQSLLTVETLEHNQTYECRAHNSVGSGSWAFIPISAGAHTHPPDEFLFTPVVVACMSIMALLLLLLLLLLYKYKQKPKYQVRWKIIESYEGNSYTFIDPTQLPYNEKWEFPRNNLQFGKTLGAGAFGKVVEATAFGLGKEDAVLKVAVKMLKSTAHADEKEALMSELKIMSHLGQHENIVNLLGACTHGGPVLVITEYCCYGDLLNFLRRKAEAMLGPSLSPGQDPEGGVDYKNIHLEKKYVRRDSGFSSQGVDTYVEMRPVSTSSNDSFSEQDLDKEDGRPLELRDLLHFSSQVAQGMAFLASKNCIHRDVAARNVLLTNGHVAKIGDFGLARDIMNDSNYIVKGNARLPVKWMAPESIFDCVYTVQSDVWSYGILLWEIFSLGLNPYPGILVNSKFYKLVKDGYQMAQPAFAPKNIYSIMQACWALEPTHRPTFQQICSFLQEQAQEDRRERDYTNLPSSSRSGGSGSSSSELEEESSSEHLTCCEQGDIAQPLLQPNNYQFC
# Platelet-derived growth factor receptor beta, sequence (P09619 whole entry): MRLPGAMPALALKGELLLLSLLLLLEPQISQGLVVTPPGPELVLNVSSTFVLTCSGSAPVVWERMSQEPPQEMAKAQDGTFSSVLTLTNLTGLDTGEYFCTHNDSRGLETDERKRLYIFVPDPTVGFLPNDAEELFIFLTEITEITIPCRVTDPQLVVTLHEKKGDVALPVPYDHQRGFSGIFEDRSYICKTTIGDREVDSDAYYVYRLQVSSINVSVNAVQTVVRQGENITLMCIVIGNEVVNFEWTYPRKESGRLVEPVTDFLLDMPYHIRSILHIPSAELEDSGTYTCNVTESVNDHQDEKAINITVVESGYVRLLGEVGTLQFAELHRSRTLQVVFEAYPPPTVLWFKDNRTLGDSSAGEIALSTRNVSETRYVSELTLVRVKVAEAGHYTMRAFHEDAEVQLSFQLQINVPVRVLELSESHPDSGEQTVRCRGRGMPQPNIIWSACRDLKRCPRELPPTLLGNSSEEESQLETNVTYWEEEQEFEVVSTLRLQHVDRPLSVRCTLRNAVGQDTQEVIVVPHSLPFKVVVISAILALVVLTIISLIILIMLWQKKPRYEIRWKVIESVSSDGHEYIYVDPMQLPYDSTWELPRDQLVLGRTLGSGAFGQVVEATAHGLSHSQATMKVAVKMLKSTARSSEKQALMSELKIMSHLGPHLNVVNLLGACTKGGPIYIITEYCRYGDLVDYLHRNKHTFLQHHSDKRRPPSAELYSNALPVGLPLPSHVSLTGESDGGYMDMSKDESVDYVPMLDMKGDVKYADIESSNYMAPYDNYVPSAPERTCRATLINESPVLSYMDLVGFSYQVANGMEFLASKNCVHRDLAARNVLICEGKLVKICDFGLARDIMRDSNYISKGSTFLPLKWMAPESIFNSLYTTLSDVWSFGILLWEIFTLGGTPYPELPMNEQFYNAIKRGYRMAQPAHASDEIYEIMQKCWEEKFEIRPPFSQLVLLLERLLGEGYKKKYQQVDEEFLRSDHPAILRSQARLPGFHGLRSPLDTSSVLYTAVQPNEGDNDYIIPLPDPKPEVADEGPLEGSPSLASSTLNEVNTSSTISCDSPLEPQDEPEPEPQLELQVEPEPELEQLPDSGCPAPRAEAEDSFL
smiles,measurement,setting,value
CC(C)(C)c1cc(NC(=O)Nc2ccc(-c3cn(-c4ccc(OCCN5CCOCC5)cc4Cl)nn3)cc2)no1,inhibition,[1],Active
same,Cmax,[2],6850 ng/mL
same,Activity,MV4-11 [3],Active
same,viability at 0.02 µM,MV4-11 [4],84%
same,Activity,MV4-11 [5],13.06%
same,Tmax,[6],15 min
same,Activity,MV4-11 [7],Active
same,GI50 at 72 h,in vitro,> 3000 nM
same,Kd,[8],21 nM
same,Activity,MV4-11 [9],6.53%
same,Kd,[10],6.9 nM
same,inhibition,[11],Active
same,GI50,MOLM-13,5.9 nM
same,Activity,MV4-11 [12],2.64%
same,Activity,MV4-11 [13],10.62%
same,Kd,[14],2400 nM
same,Activity,MV4-11 [15],Active
same,Activity,MV4-11 [16],5.68%
same,GI50,U-937,> 3000 nM
same,GI50,[17],3 nM
same,viability at 0.004 µM,MV4-11 [18],88.7%
same,Kd,[19],8.1 nM
same,Activity,MV4-11 [20],4.31%
same,Activity,MV4-11 [21],15.39%
same,inhibition,[22],inactive
same,AUC,[23],41300 ng·h/mL
same,GI50,HL-60,> 3000 nM
same,Activity,MV4-11 [24],12.1%
same,Kd,[25],100 nM
same,Activity,MV4-11 [26],18.42%
